Structures can show the parent of a compound that is named as a salt. Where two headings read alike, the source gives them in different places.
Experiments:
hCB2 = hCB2 (Homo sapiens, UniProt P34972); assay: In vitro binding assay using hCB2-CHO membranes, [3H]-CP-55,940 displacement (Protocol IV); design: expressed in transfected cells; host or cells: CHO (hCB2-CHO, generated in-house); conditions: for inhibition at 0.3 µM: 1 h, read-out: % Displacement Protocol IV
Procedure: IV. Protocol for In Vitro Assay Using hCB2-CHO Membranes:
In this assay, [^3H]-CP-55,940 was used as the radioligand to bind human CB2 receptor expressed on the membranes from CHO cells (hCB2-CHO cell line was generated in-house) which can be displaced by unlabeled ligands having affinity to the CB2 receptor.
The assay was performed according to the modified method of Ross et al., 1999 (Br. J. Pharmacol. 128, 735-743). The reaction was set up in a total volume of 200 μl in PEI (0.2%) precoated Millipore GFB filter plates. 1 mM stocks of test compounds were prepared in DMSO and tested at a final concentration of 300 nM. The non-specific binding was determined by 0.5 μM CP-55, 940. The total reaction mixture contained Tris-BSA buffer (50 mM Tris, 5 mM MgCl2, 1 mM EDTA, pH 7.4 with 0.1% BSA), unlabelled CP-55, 940 (0.5 μM) or test samples, [^3H]-CP-55, 940 (0.75 nM) and 25-50 μg of human CB2 receptor preparation. The assay mixture (with or without the test compound) was incubated at 30° C. for 1 hour. The reaction was stopped by rapid filtration under vacuum and the radioactivity on the filters was measured by liquid scintillation counting.
(§1) The percent (%) displacement by a test ligand was calculated by comparing the specific bound values.

CB1 = CB1 (Rattus norvegicus, UniProt P20272); assay: Rat CB1 receptor binding using brain membrane, [3H]SR141716A displacement (Protocol I); design: CB1 receptor present in a rat brain membrane preparation; from tissue; host or cells: rat brain membrane; inhibition: dose or concentration left out as unconfirmed; conditions: for inhibition: 1 h
CB1, sequence (P20272 whole entry): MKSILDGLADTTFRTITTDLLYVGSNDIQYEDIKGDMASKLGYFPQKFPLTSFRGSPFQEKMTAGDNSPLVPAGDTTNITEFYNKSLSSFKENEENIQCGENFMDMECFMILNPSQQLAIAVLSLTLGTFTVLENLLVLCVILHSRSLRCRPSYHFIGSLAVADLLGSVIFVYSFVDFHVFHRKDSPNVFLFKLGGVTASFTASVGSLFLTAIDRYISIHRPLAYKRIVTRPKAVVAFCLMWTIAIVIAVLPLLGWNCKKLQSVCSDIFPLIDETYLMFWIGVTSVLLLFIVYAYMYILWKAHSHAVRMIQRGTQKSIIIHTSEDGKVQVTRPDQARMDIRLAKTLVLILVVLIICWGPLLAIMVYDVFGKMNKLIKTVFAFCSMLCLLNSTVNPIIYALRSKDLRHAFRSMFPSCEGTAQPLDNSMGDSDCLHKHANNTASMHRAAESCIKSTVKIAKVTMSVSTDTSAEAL
Procedure: I. In Vitro Protocol for Rat CB1 Receptor Binding Using Brain Membrane
In this assay, [^3H]SR141716A (5-(4-chlorophenyl)-1-(2,4-dichlorophenyl)-4-methyl-N-(1-piperidyl)pyrazole-3-carboxamide) was used to bind the CB1 receptor present in a rat brain membrane preparation which can be displaced by unlabeled ligands having affinity to the CB1 receptor.
The assay was performed according to the modified method of Thomas et al., 1998 (JPET 285: 285-292). The total reaction mixture ([…]) contained Tris-BSA buffer (50 mM Tris, pH 7.4 with 1.5% BSA) or unlabeled SR141716A […] or test samples […], [^3H] SR141716A (2 nM) and […] of rat brain membrane. The non-specific binding was defined by […] of SR141716A. The assay mixture was incubated at 37° C. for 1 hour. The reaction was then stopped by rapid filtration under vacuum using Whatman GF/B-96 micro filter plate. A scintillation cocktail was added and radioactive counts were measured using a Topcount beta scintillation counter.
The standard and test sample dilutions were made in an assay buffer containing either ethanol or DMSO at a final concentration of 1%.
as §1

[1] = hCB2-CHO membranes, [3H]-CP-55,940 displacement
[2] = rat brain membrane, [3H]SR141716A displacement
[3] = rat brain membrane, [3H]SR141716A displacement, read-out: % Displacement Protocol I
[4] = read-out: % Displacement Protocol I, rat brain membrane, [3H]SR141716A displacement

hCB2, sequence (P34972 whole entry): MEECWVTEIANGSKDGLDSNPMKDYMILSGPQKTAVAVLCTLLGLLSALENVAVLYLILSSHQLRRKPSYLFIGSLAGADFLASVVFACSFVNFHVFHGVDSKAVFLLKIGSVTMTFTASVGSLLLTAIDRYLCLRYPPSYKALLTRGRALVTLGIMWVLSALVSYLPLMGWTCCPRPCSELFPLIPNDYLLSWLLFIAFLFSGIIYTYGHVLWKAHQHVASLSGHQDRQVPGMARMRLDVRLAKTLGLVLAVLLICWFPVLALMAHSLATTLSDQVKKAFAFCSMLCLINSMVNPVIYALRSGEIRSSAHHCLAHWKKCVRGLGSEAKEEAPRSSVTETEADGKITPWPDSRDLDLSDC

Structure (SMILES) | melting point | inhibition (CB1; [3]) | inhibition at 0.3 µM (hCB2) | other results
O=C(NN1CCCCC1)c1nn(-c2ccc(Cl)cc2Cl)c2c1C1c3ccccc3C2C2C(=O)N(c3ccc(Cl)cc3)C(=O)C12 (stereo not shown) [Example 602, N(12)-Piperidino-16-(4-chlorophenyl)-10-(2,4-dichlorophenyl)-15,17-dioxo-10,11,16-triazapentacyclo[6.5.2.0^2,7.0^9,13.0^14,18]octadeca-2,4,6,9(13),11-pentaene-12-carboxamide] | – | – | – | % Displacement Protocol IV (hCB2; [1]): 16.4%; % Displacement Protocol I (CB1; [2]): 4.1%
O=C(NCc1ccccc1Cl)c1nn(-c2ccc(Cl)cc2Cl)c2c1C1CCC2C1 (stereo not shown) [Example 249, N(3)-(2-Chlorobenzyl)-1-(2,4-dichlorophenyl)-4,5,6,7-tetrahydro-1H-4,7-methano-indazole-3-carboxamide] | 117 to 120 °C | 47.7% | – | –
O=C(NNc1ccccc1Cl)c1nn(-c2ccc(Cl)cc2)c2c1C1CC3CC(C1)CC2C3 [Example 124, N(7)-(2-Chlorophenylamino)-5-(4-chlorophenyl)-5,6-diazatetracyclo[7.3.1.1^3,11.0^4,8]tetradeca-4(8),6-diene-7-carboxamide hydrochloride] | – | – | – | inhibition (CB1; [4]): 80.1%
O=C(Nc1ccccc1)c1nn(-c2ccc(Cl)cc2)c2c1C1CC3CC(C1)CC2C3 [Example 142, N(7)-Phenyl-5-(4′-chlorophenyl)-5,6-diazatetracyclo[7.3.1.1^3,11.0^4,8]tetradeca-4(8)-6-diene-7-carboxamide] | – | – | – | % Displacement Protocol IV (hCB2; [1]): 9.86%; % Displacement Protocol I (CB1; [2]): 25%
O=C(NNc1ccc(Cl)cc1Cl)c1nn(-c2ccccc2Cl)c2c1C1CC3CC(C1)CC2C3 [Example 181, N(7)-(2,4-Dichlorophenylamino)-5-(2-chlorophenyl)-5,6-diazatetracyclo[7.3.1.1^3,11.0^4,8]tetradeca-4(8),6-diene-7-carboxamide] | 233 to 240 °C | 16.4% | – | –
O=C(NCc1ccccc1)c1nn(-c2ccccc2Cl)c2c1C1CCC2C1 (stereo not shown) [Example 207, N(3)-Benzyl-1-(2-chlorophenyl)-4,5,6,7-tetrahydro-1H-4,7-methano-indazole-3-carboxamide] | – | -1.2% | – | –
O=C(NC1CCCCC1)c1nn(-c2ccc(F)cc2)c2c1C1CCC2C1 (stereo not shown) [Example 279, N(3)-Cyclohexyl-1-(4-fluorophenyl)-4,5,6,7-tetrahydro-1H-4,7-methano-indazole-3-carboxamide] | 127 °C | – | – | inhibition (CB1; [4]): 62%
O=C(NNc1cccc(F)c1)c1nn(-c2ccc(Cl)cc2)c2c1C1CC3CC(C1)CC2C3 [Example 133, N(7)-(3-fluorophenylamino)-5-(4-chlorophenyl)-5,6-diazatetracyclo[7.3.1.1^3,11.0^4,8]tetradeca-4(8),6-diene-7-carboxamide] | 203 °C | 59.7% | – | –
O=C(NCCc1ccccc1)c1nn(-c2ccc(Cl)cc2Cl)c2c1C1CCC2C1 (stereo not shown) [Example 254, N(3)-(2-phenylethyl)-1-(2,4-dichlorophenyl)-4,5,6,7-tetrahydro-1H-4,7-methano-indazole-3-carboxamide] | – | 9.1% | – | –
O=C(NCc1ccc(C(F)(F)F)cc1)c1nn(-c2ccc(Cl)cc2)c2c1C1CC3CC(C1)CC2C3 [Example 116, N(7)-(4-Trifluoromethylbenzyl)-5-(4-chlorophenyl)-5,6-diazatetracyclo[7.3.1.1^3,11.0^4,8]tetradeca-4(8),6-diene-7-carboxamide] | – | – | – | inhibition (CB1; [4]): 24.9%
O=C(NCc1ccccc1)c1nn(-c2ccccc2)c2c1C1CCC2C1 (stereo not shown) [Example 203, N(3)-Benzyl-1-phenyl-4,5,6,7-tetrahydro-1H-4,7-methano-indazole-3-carboxamide] | 115 °C | -10.4% | – | –
O=C(NCCc1ccc(F)cc1)c1nn(-c2ccc(Cl)cc2Cl)c2c1C1CCC2C1 (stereo not shown) [Example 255, N(3)-[2-(4-fluorophenyl)ethyl]-1-(2,4-dichlorophenyl)-4,5,6,7-tetrahydro-1H-4,7-methano-indazole-3-carboxamide] | – | 23.9% | – | –
CC(C)(NC(=O)c1nn(-c2ccc(F)cc2F)c2c1C1CCC2C1)c1ccccc1Cl (stereo not shown) [Example 295, N5-[1-(2-Chlorophenyl)-1-methylethyl]-3-(2,4-difluorophenyl)-3,4-diazatricyclo[5.2.1.0^2,6]deca-2(6),4-diene-5-carboxamide] | 176 to 179 °C | – | 100% | –
CC12CCC(c3c(C(=O)NC45CC6CC(CC(C6)C4)C5)nn(-c4ccc(F)cc4F)c31)C2(C)C (stereo not shown) [Example 405, N(3)-(Adamantan-1-yl)-1-(2,4-difluorophenyl)-7,8,8-trimethyl-4,5,6,7-tetrahydro-1H-4,7-methano-indazole-3-carboxamide] | 162 to 165 °C | – | 87.9% | –
CC(C)(NC(=O)c1nn(-c2ccc(F)cc2)c2c1C1CC3CC(C1)CC2C3)c1ccccc1 [Example 157, N(7)-(1-Methyl-1-phenylethyl)-5-(4-fluorophenyl)-5,6-diazatetracyclo[7.3.1.1^3,11.0^4,8]tetradeca-4(8),6-diene-7-carboxamide] | 180 to 182 °C | – | 88.5% | –
CC[C@H](NC(=O)c1nn(-c2ccc(F)cc2F)c2c1C1CCC2C1)c1ccccc1 (stereo partly drawn) [Example 300, N5-[(1S)-1-Phenylpropyl]-3-(2,4-difluorophenyl)-3,4-diazatricyclo[5.2.1.0^2,6]deca-2(6),4-diene-5-carboxamide] | 100 to 103 °C | – | 90.1% | –
O=C(NCc1ccc(F)cc1F)c1nn(-c2ccc(Cl)cc2)c2c1C1CC3CC(C1)CC2C3 [Example 114, N(7)-(2,4-Difluorobenzyl)-5-(4-chlorophenyl)-5,6-diazatetracyclo[7.3.1.1^3,11.0^4,8]tetradeca-4(8),6-diene-7-carboxamide] | 185 °C | – | 31.7% | –
CC1(NC(=O)c2nn(-c3ccc(F)cc3F)c3c2C2CCC3C2)C2CC3CC(C2)CC1C3 (stereo not shown) [Example 310, N5-(2-Methyl-2-adamantyl)-3-(2,4-difluorophenyl)-3,4-diazatricyclo[5.2.1.0^2,6]deca-2(6),4-diene-5-carboxamide] | 60 °C | – | 94.2% | –
O=C(NC1C2CC3CC(C2)CC1C3)c1nn(-c2ccc(F)cc2F)c2c1C1CCC2C1 (stereo not shown) [Example 309, N5-(2-Adamantyl)-3-(2,4-difluorophenyl)-3,4-diazatricyclo[5.2.1.0^2,6]deca-2(6),4-diene-5-carboxamide] | 159 to 161 °C | – | 98.5% | –
O=C(c1nn(-c2ccc(Cl)cc2)c2c1C1CC3CC(C1)CC2C3)N1CCCCC1 [Example 141, 7-(4′-Chlorophenyl)-6,7-diazatetracyclo[7.3.1.1^3,11.0^4,8]tetradeca-4(8)-5-dien-5-yl-piperidinomethanone] | – | – | – | % Displacement Protocol I (CB1; [2]): 17%
COC(=O)[C@H](NC(=O)c1nn(-c2ccc(F)cc2F)c2c1C1CCC2(C)C1(C)C)c1ccccc1 (stereo partly drawn) [Example 409, Methyl (2R)-2-[1-(2,4-difluorophenyl)-7,8,8-trimethyl-4,5,6,7-tetrahydro-1H-4,7-methano-indazole-3-carboxamido]-2-phenylethanoate] | 107 to 109 °C | – | – | inhibition at 0.3 µM (hCB2; [1]): 65.3%
CC12CCC(C1)C(C)(C)C2NC(=O)c1nn(-c2ccc(F)cc2)c2c1C1CC3CC(C1)CC2C3 (stereo not shown) [Example 159, N7-(1,3,3-Trimethylbicyclo[2.2.1]hept-2-yl)-5-(4-fluorophenyl)-5,6-diazatetracyclo[7.3.1.1^3,11.0^4,8]tetradeca-4(8),6-diene-7-carboxamide] | 139 to 141 °C | – | 97.7% | –
O=C(Nc1cccc(Br)c1)c1n[nH]c2c1C1(c3ccc(Cl)cc3)CCC2C1 (stereo not shown) [Example 217, N(3)-(3-Bromophenyl)-4-(4-chlorophenyl)-4,5,6,7-tetrahydro-1H-4,7-methano-indazole-3-carboxamide] | – | 20.5% | – | inhibition at 0.3 µM (hCB2; [1]): 10.7%

From US7923465B2, “Cannabinoid receptor ligands, pharmaceutical compositions containing them, and process for their preparation” (priority 2005, dated 2011)
